Data as given in patent US20070224593A1 (priority 2005, published 2007).

Assays:
[1] = target: non-amyloid or pre-amyloid PrP-d (Ovis aries, UniProt P23907); type: binding; conditions: such compounds were previously believed to associate only with classical amyloid PrP-d isoforms
[2] = target: scrapie-form prion protein (PrP-d) (Ovis aries, UniProt P23907); conditions: retropharyngeal lymph nodes of TSE+ sheep, ex vivo; 100 μM, 10 min, RT; λex approx. 370 nm, λem approx. 450 nm; TSE status confirmed by PrP-d immunohistochemistry
PrP-d = PrP-d (Ovis aries, UniProt P23907); type: binding; conditions: same section of unfixed lymphoid tissue from scrapie positive sheep
Chain of PrP-d (P23907 25-233 limits assumed): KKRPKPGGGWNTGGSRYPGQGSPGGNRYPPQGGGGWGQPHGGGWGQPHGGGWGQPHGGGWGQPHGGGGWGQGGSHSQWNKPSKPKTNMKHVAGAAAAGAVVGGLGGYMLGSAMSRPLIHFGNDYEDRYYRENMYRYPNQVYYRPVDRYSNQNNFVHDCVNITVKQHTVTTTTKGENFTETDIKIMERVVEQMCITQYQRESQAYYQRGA

Chain of non-amyloid or pre-amyloid PrP-d (P23907 25-233 limits assumed): as above
Chain of scrapie-form prion protein (PrP-d) (P23907 25-233 limits assumed): as above

Compound	Binding to non-amyloid or pre-amyloid PrP-d [1]	PrP-d detection and visualization by probe fluorescence [2]	Correlation of probe imaging with antibody binding (immunohistochemistry, AEC) (PrP-d)
1,4-bis(4′-hydroxystyrl)-2-methoxybenzene [Me-X04]	Binding	detected and visualized	
O=C(O)c1cc(C=Cc2ccc(C=Cc3ccc(O)c(C(=O)O)c3)cc2)ccc1O [X-34, 1,4-bis(3-carboxy-4-hydroxyphenylethenyl)-benzene]	Binding		colocalization of the X34 binding and the antibody binding
